The values that follow come from patent US20020111318A1, “Process for the preparation of non-hygroscopic azithromycin dihydrate” (priority 2001, published 2002).

For one data set, the system named is gram negative organisms. Conditions: Dunn and Barradell, Drugs 1996; cited from earlier work.
A short description of data set [1]: Moisture uptake of crystals on exposure to ambient atmosphere (hygroscopicity). The class given is physicochemical. On the procedure:
9-Deoxo-9a-aza-9a-homoerythromycin A (73.5 g-0.1 mole) was dissolved in 250 ml acetone. To this solution, formic acid (19 ml) followed by formaldehyde (37%, 20 ml) were added and refluxed for 24 hrs. The pH of the reaction mixture was adjusted with alkali to 10.5 and filtered to remove particles. To the filtered acetone solution equal volume of water was added to precipitate azithromycin hygroscopic monohydrate as cube shaped crystals. The crystals were filtered and dried under vacuum at 50° C. to give 65 g of azithromycin monohydrate melting at 130-131° C. having a water content of 3.42% (by Karl Fischer titration method). This sample of hygroscopic monohydrate has a characteristic solid state (KBr pellet) IR spectrum (FIG. 1) and a characteristic x-ray diffraction pattern (FIG. 4).
10 gms of hygroscopic azithromycin-monohydrate was suspended in a mixture of iso-propanol (10 ml) and water (10 ml) and stirred at ambient temperature. The transformation of cubical crystals of monohydrate form to the rhomboid form crystals of dihydrate was followed by checking the crystal habit under a microscope at every two hour interval. At 16 hours the rhomboid dihydrate crystals only were seen. The slurry was filtered and dried under vacuum at 50° C. to give 9.8 g of azithromycin dihydrate. […] It has a characteristic solid state IR spectrum (KBr pellet) (FIG. 2) and x-ray diffraction pattern (FIG. 3).

Turning to `CC[C@H]1OC(=O)[C@H](C)[C@@H](O[C@H]2C[C@@](C)(OC)[C@@H](O)[C@H](C)O2)[C@H](C)[C@@H](O[C@@H]2O[C@H](C)C[C@H](N(C)C)[C@H]2O)[C@@](C)(O)C[C@@H](C)CN(C)[C@H](C)[C@@H](O)[C@]1(C)O` [Azithromycin, 9-Deoxo-9a-aza-9a-methyl-9a-homo-Eryhromycin A], in the data set with gram negative organisms, the “activity against gram negative organisms compared to Erythromycin A” value is recorded as “significant improvement in its activity”.

For `CC[C@H]1OC(=O)[C@H](C)[C@@H](O[C@H]2C[C@@](C)(OC)[C@@H](O)[C@H](C)O2)[C@H](C)[C@@H](O[C@@H]2O[C@H](C)C[C@H](N(C)C)[C@H]2O)[C@](C)(O)C[C@@H](C)CN(C)[C@H](C)[C@@H](O)[C@]1(C)O` [azithromycin dihydrate, Azithromycin dihydrate], in data set [1] (dihydrate crystals dried under vacuum at 50° C., then exposed to ambient atmosphere), the “change in moisture content on exposure to ambient atmosphere” value was “no change in the moisture content”.

In the case of `CC[C@H]1OC(=O)[C@H](C)[C@@H](O[C@H]2C[C@@](C)(OC)[C@@H](O)[C@H](C)O2)[C@H](C)[C@@H](O[C@@H]2O[C@H](C)C[C@H](N(C)C)[C@H]2O)[C@](C)(O)C[C@@H](C)CN(C)[C@H](C)[C@@H](O)[C@]1(C)O` [azithromycin monohydrate, Azithromycin monohydrate], in data set [1] (exposure to ambient atmosphere, 48 hrs, water content after drying 3.42% (Karl Fischer)), the “moisture content reached on exposure to ambient atmosphere” value is 5.4%.
